From patent US9512178B2, “Neurogenic brain-derived neurotrophic factor peptides” (Research Foundation for Mental Hygiene, Inc., priority 2012, dated 2016)

What was measured:
[1] = test system: BDNF and TrkB; assay: Induction of BDNF and TrkB expression after pre-treatment with CHX or K252a; format: cell-based, mouse; conditions: two days of treatment
Method: (§1) Peptides were dissolved in water in serial dilutions of 10 mM, 1 mM, 100 μM and 10 μM from which the necessary amount was added directly to the culture medium to a final concentration of 0.05 μM, 1 μM, or 10 μM. The BDNF (Peprotech, NJ, USA) was used as a reference in concentrations of 20 ng/ml (0.79 nM) and 100 ng/ml (3.95 nM). Cycloheximide (CHX) (Sigma-Aldrich, St Louis, Mo., USA) was used for blocking protein synthesis. CHX original stock was 100 mg/ml (355.4 mM) in DMSO; from a second stock of 35.54 mM in DMSO, the dilutions were made to the final concentrations of 100 μM. The K252a (CALBIOCHEM/EMD) was used to inhibit the TrkB Receptor. From a stock of 100 μM in DMSO, K252a was diluted to a final working concentration of 200 nM. The E18 primary hippocampal cells were pre-treated with CHX or K252a 1 h prior to the addition of the peptides or BDNF and a time course of these treatments for 15 min, 60 min and 2 days was studied.
To evaluate whether the effect of B-5 and B-3 in induction of the expression of BDNF and TrkB was via the activation of the TrkB receptor and required signal transduction via TrkB and new protein synthesis, mouse embryonic E18 cultured hippocampal cells were pre-treated with the protein synthesis inhibitor, cycloheximide (CHX) or the Trk inhibitor K252a for 1 h, and then added Peptide B-5 at a concentration of 0.1 μM (the dose that gave the maximum induction of BDNF expression, FIGS. 5A and B) or BDNF 20 ng/ml as a positive control (FIG. 7C,D). A time course of these treatments was studied with Peptide B-5 or BDNF for 15 min, 60 min and two days.

[2] = biological target: T1, TrkB receptor (Mus musculus, UniProt P15209); assay: TrkB phosphorylation (Tyr 706) and TrkB level in primary E18 hippocampal cells, with or without K252a; format: cell-based; conditions: K252a pretreatment 1 h (200 nM), then BDNF or peptides B-5 or B-3 for 5 min
T1 construct: endogenous in cells; host or cells: primary hippocampal neurons from embryonic day 18 C57BL/6 mice
T1 sequence (P15209 32-821): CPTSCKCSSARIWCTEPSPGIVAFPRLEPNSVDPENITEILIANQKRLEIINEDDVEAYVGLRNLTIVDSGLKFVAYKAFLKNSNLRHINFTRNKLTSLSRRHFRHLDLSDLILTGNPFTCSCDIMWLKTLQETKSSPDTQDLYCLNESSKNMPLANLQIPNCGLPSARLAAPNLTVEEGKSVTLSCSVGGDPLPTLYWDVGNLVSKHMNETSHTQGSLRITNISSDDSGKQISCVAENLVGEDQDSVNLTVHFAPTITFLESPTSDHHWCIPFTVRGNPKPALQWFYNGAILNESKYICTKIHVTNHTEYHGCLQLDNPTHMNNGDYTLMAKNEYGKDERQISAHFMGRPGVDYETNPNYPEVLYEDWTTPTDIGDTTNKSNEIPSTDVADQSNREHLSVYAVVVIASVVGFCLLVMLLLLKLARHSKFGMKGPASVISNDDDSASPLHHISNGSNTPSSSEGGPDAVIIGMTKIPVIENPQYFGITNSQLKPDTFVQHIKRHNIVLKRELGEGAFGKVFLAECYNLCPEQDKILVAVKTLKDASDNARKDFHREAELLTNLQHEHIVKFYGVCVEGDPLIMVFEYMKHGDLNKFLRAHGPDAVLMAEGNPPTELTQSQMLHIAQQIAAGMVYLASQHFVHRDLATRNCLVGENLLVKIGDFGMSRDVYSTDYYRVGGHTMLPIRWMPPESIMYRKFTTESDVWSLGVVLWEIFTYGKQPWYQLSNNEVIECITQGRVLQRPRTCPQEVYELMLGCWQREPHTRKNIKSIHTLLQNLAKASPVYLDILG
Method: as §1
(§2) Following treatment in 6-well plates, cells were washed 2× in glucose buffered saline, GBS (5.4 mM KCl, 138 mM NaCl, 22 mM glucose, and 2 mM Na—KPO pH 7.2), and then lysed by 5 min incubation on ice in 100 or 150 μl of ice-cold RIPA buffer (PBS, 1% w/v NP-40 from Fisher Scientific, 0.1% w/v SDS, and 0.5% w/v sodium desoxycholate) containing 1 mM AEBSF (Gold Biotechnology, St. Louis, Mo., USA), 10 μg/ml aprotinin (Sigma-Aldrich, St. Louis, Mo., USA), and 20 μg/ml of leupeptin and pepstatin (US Biochemicals, Cleveland, Ohio, USA), and phosphatase inhibitors: NaF, Na orthovanadate, (3-glycerophosphate, and microcystein (Sigma-Aldrich, St. Louis, Mo., USA). Extracts were prepared by collecting and pooling a minimum of 2 wells by scraping, and lysates were centrifuged at 20,000×g for 10 min at 4° C. Protein concentration of each cell lysate was determined using the BCA kit (Thermo Scientific, Rockford, Ill., USA). The lysates (7.5-20 μg total protein) were separated on 10% SDS-PAGE gels (except for BDNF where 12% gels were employed) and transferred to 0.45 μm PVDF membrane (Pall, Pensacola, Fla., USA) for probing with antibodies as noted. Blots were blocked for 1 hr at 37° C. in 1×TBST (0.05% Tween 20 in TBS) containing 5% w/v blotting grade dry milk (Bio-rad, Hercules, Calif., USA), incubated in primary antibody overnight in blocking buffer at 4° C., washed 3×10 min in TBST at room temperature, followed by incubation with secondary antibody, i.e., peroxidase-conjugated anti-mouse or anti rabbit IgG (Jackson ImmunoResearch Laboratories, West Grove, Pa., USA) diluted in blocking buffer. Blots were washed 3×10 min in TBST and immunoreactive protein bands were visualized with enhanced chemiluminescence (ECL) reagents (Pierce, Rockford, Ill., USA). The ECL films of the blots were scanned and analyzed using Multi Gauge software version 3.0 (Fujifilm, Tokyo, Japan).
The following primary antibodies were used: rabbit polyclonal anti-NFM (1:1000; Chemicon/Millipore, Billerica, Mass., USA); mouse monoclonal anti-NeuN, clone A60 (1:500; Millipore, Billerica, Mass., USA); rabbit polyclonal anti-Tuj-1, (3—III-tubulin (Covance; 1:800, Emeryville, Calif., USA); mouse monoclonal SMI 52 to the adult isoforms of MAP-2, MAP2a,b (1:1000; Covance, Emeryvilly, Calif., USA); rabbit polyclonal anti-Synapsin I (1:2000; Stressgen, Farmingdale, N.Y., USA); rabbit monoclonal anti-PSD95 (1:1000; Cell signaling, Danvers, Mass., USA); anti tau 92e (1:10000); mouse monoclonal anti-BDNF (1:1000; Calbiochem, Gibbstown, N.J., USA); rabbit polyclonal anti-TrkB (total) (1:500; Santa Cruz Biotechnology, Santa Cruz, Calif., USA); rabbit polyclonal anti-pTrkB (Tyr706) (1:400; Santa Cruz Biotechnology, Santa Cruz, Calif., USA), TrkC (1:1000; Cruz Biotechnology, Santa Cruz, Calif., USA); and pTrkY490 (1:500; Upstate USA Inc., Charlottesville, Va., USA). For loading control, the blots were developed with rabbit polyclonal antibody to GAPDH (1:2000; Santa Cruz Biotechnology, Santa Cruz, Calif., USA). […]

[3] = test system: E18 primary hippocampal neurons; assay: Western blots of neuronal markers, densitometry; format: cell-based, mouse; conditions: 5 days
Method: as §2
(§3) The following primary antibodies were used: rabbit polyclonal anti-NFM (1:1000; Chemicon/Millipore, Billerica, Mass., USA); mouse monoclonal anti-NeuN, clone A60 (1:500; Millipore, Billerica, Mass., USA); rabbit polyclonal anti-Tuj-1, (3—III-tubulin (Covance; 1:800, Emeryville, Calif., USA); mouse monoclonal SMI 52 to the adult isoforms of MAP-2, MAP2a,b (1:1000; Covance, Emeryvilly, Calif., USA); rabbit polyclonal anti-Synapsin I (1:2000; Stressgen, Farmingdale, N.Y., USA); rabbit monoclonal anti-PSD95 (1:1000; Cell signaling, Danvers, Mass., USA); anti tau 92e (1:10000); mouse monoclonal anti-BDNF (1:1000; Calbiochem, Gibbstown, N.J., USA); rabbit polyclonal anti-TrkB (total) (1:500; Santa Cruz Biotechnology, Santa Cruz, Calif., USA); rabbit polyclonal anti-pTrkB (Tyr706) (1:400; Santa Cruz Biotechnology, Santa Cruz, Calif., USA), TrkC (1:1000; Cruz Biotechnology, Santa Cruz, Calif., USA); and pTrkY490 (1:500; Upstate USA Inc., Charlottesville, Va., USA). For loading control, the blots were developed with rabbit polyclonal antibody to GAPDH (1:2000; Santa Cruz Biotechnology, Santa Cruz, Calif., USA).
To biochemically study the effect of BDNF peptides in inducing expression of neuronal markers, protein samples were recovered from cells treated with peptides B-5, B-4, B-3, or vehicle for five days. As a positive control, protein samples were collected from cells treated with BDNF at 20 ng/ml (0.79 nM) or 100 ng/ml (3.95 nM) (FIG. 3D, E). Western blots of the cell lysates were developed with antibodies to Synapsin I (presynaptic marker), PSD95 (postsynaptic marker), NeuN (late neuronal marker), NFM (early neuronal marker), MAP2 (dendritic marker), 0-IIItubulin (early neuronal marker), and tau 92e (axonal marker).

[4] = test system: BDNF; assay: BDNF expression, Western blot, 5 days treatment; format: cell-based, mouse; conditions: vs control medium
Method: as §2, §3
To investigate the molecular mechanism by which the BDNF peptides promoted neurogenic/neurotrophic activities, the hippocampal primary cultured neurons were treated with the peptides or BDNF for five days and compared with the control medium treated cells.

[5] = test system: mouse E18 primary hippocampal neurons; assay: Toxicity of the peptides: phase contrast morphology and LDH assay, 5 days treatment; format: cell-based; conditions: 1 μM
From the text: To screen these peptides, primary neuronal cell cultures were used from embryonic day 18 (E18) C57BL/6 mouse hippocampus. At the fourth day in vitro (DIV), the culture medium was exchanged with the medium containing the peptides. The primary neuronal cultures were established as taught in the art (see, e.g., Cardenas-Aguayo Mdel, Santa-Olalla et al. 2003, hereby incorporate by reference). Briefly, C57BL/6 time pregnant E18 female mice from Charles River Labs were anesthetized and killed by cervical dislocation following our Institutional Animal Care and Use Committee (IACUC) regulations and approved protocol. Embryos were removed and placed in cold Hibernate A (available from Brain bits, Springfield, Ill., USA), and all of the following steps were performed in ice-cold Hibernate A, under a stereoscopic (dissection) microscope placed in a laminar flow hood. Fetal brains were removed carefully and fore brain were separated. Then, the hippocampus, including the cortex surrounding the area of the hippocampus, was dissected and cut into small pieces using microsurgical scissors. The cut tissue was transferred with number 5 forceps to 15 ml tubes containing 0.1% trypsin in Versene (Invitrogen Life Technologies, Grand Island, N.Y., USA) and incubated for 15 min at 37° C. followed by inactivation with 10% fetal bovine serum (FBS) in Neurobasal complete medium (Neurobasal Medium supplemented with 2×B-27, 0.30% glutamine, and penicillin/streptomycin 0.1 mg/ml and 0.1 U/ml respectively). All medium components were purchased from Invitrogen, Grand Island, N.Y., USA. […]
To study any toxic effect of the peptides, mouse E18 primary hippocampal neurons were treated with the five BDNF peptides individually for up to 5 days at different doses [5 nM, 25 nM, 50 nM (data not shown), 100 nM (0.1 μM), 1000 nM (1 μM), and 10,000 nM (10 μM)]. […] Accordingly, there was no significant change in the viability of cells treated with any of the peptides as evaluated by the lactate dehydrogenase (LDH) assay (see FIG. 2B). […]

[6] = test system: primary E18 hippocampal cells; assay: Rescue of H2O2-induced neurotoxicity (LDH assay); format: cell-based, mouse; conditions: then treatment 24 h
Method: Evaluation of cell death and cell viability was performed using the LDH kit (Promega, Madison Wis., USA), following manufactures instructions. Percentages of cell death and cell viability were plotted separately.
In order to evaluate the potential neuroprotective effect of BDNF peptides, the primary E18 hippocampal cells were challenged with 0, 60, 80 and 100 μM H2O2 for 6 hours, and then cells were washed with culture medium and fresh culture medium was added containing the peptides B-5 or B-3 or BDNF or BDNF plus B-3 (see FIGS. 4A and 4B). After 24 hours, the cell viability was assayed by the LDH method.

[7] = phase III, amyotrophic lateral sclerosis, daily subcutaneous administration; cited from earlier work

C[C@@H]1C[C@@H]([C@H](O)CC2CC(=O)NC(=O)C2)C(=O)[C@@H](C)C1 [CHX, Cycloheximide, reference compound]
block of the increase in expression of BDNF caused by BDNF peptides or BDNF ([1]; CHX pre-exposure 1 h (100 μM)): can be blocked

COC(=O)[C@@]1(O)C[C@H]2O[C@]1(C)n1c3ccccc3c3c4c(c5c6ccccc6n2c5c31)C(=O)NC4 [Peptide K252a, reference compound]
inhibition of the phosphorylation of TrkB at Tyrosine 706 [2]: clear inhibition
block of the increase in expression of BDNF caused by BDNF peptides or BDNF ([1]; K252a pre-exposure 1 h (200 nM)): can be blocked

Ac-D-K-R-H-CONH2 [Peptide B-4]
expression of NeuN (Western blot) ([3]; 0.1 μM): increased the expression of NeuN
expression of PSD95 (Western blot) ([3]; 0.1 μM): significant increment
level of tau (92e antibody, Western blot) [3]: Neither BNDF nor peptides B-3, B-4 or B-5 had any significant effect
expression of BDNF (Western blot) [4]: induced the expression of BDNF

Ac-R-R-G-E-CONH2 [Peptide B-1]
cell death (LDH assay) vs vehicle treated cells [5]: significant reduction in cell death

BDNF: Brain derived neurotrophic factor (Peprotech), used as a reference at 20 ng/ml and 100 ng/ml
NFM expression (Western blot) ([3]; 20 ng/ml): increased NFM expression in a similar way
expression of PSD95 (Western blot) ([3]; 20 ng/ml): increase
NFM expression (Western blot) ([3]; 100 ng/ml): increased NFM expression in a similar way
expression of PSD95 (Western blot) ([3]; 100 ng/ml): increase
level of tau (92e antibody, Western blot) [3]: Neither BNDF nor peptides B-3, B-4 or B-5 had any significant effect
cell death (LDH) ([6]; 0 μM H2O2 6 h): not statistically significant
cell viability (LDH) ([6]; 0 μM H2O2 6 h): increased cell viability significantly
cell death (LDH) ([6]; 60 μM H2O2 6 h): some reduction in cell death
cell viability (LDH) ([6]; 60 μM H2O2 6 h): increased cell viability significantly
cell death (LDH) ([6]; 80 μM H2O2 6 h): not statistically significant
cell death (LDH) ([6]; 100 μM H2O2 6 h): not statistically significant
clinical benefit [7]: no clinical benefit
